According to PubChem BioAssay (NCI):
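Abbreviation: GI50, concentration required for 50% inhibition of growth. TGI is the concentration that stops growth completely.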

Key:
Test in all cases: NCI-60 cell line screen, 384-well format; in the data active means GI50 below about 0.43 µM; inactive means the rest
786-0 renal = tested on: 786-0 renal
A498 renal = tested on: A498 renal
A549 NSCLC = tested on: A549 NSCLC
ACHN renal = tested on: ACHN renal
BT-549 breast = tested on: BT-549 breast
CAKI-1 renal = tested on: CAKI-1 renal
CCRF-CEM leukemia = tested on: CCRF-CEM leukemia
COLO 205 colon = tested on: COLO 205 colon
DU-145 prostate = tested on: DU-145 prostate
HCC-2998 colon = tested on: HCC-2998 colon
HCT-116 colon = tested on: HCT-116 colon
HCT-15 colon = tested on: HCT-15 colon
HL-60(TB) leukemia = tested on: HL-60(TB) leukemia
HOP-62 NSCLC = tested on: HOP-62 NSCLC
HOP-92 NSCLC = tested on: HOP-92 NSCLC
HT29 colon = tested on: HT29 colon
IGROV1 ovarian = tested on: IGROV1 ovarian
K-562 leukemia = tested on: K-562 leukemia
KM12 colon = tested on: KM12 colon
LOX IMVI melanoma = tested on: LOX IMVI melanoma
M14 melanoma = tested on: M14 melanoma
MCF7 breast = tested on: MCF7 breast
MDA-MB-468 breast = tested on: MDA-MB-468 breast
NCI-H226 lung = tested on: NCI-H226 lung
NCI-H23 lung = tested on: NCI-H23 lung
NCI-H460 NSCLC = tested on: NCI-H460 NSCLC
NCI-H522 lung = tested on: NCI-H522 lung
NCI/ADR-RES ovarian = tested on: NCI/ADR-RES ovarian
OVCAR-3 ovarian = tested on: OVCAR-3 ovarian
OVCAR-8 ovarian = tested on: OVCAR-8 ovarian
RPMI-8226 leukemia = tested on: RPMI-8226 leukemia
SF-268 CNS = tested on: SF-268 CNS
SF-295 CNS = tested on: SF-295 CNS
SF-539 CNS = tested on: SF-539 CNS
SK-MEL-2 melanoma = tested on: SK-MEL-2 melanoma
SK-MEL-28 melanoma = tested on: SK-MEL-28 melanoma
SK-MEL-5 melanoma = tested on: SK-MEL-5 melanoma
SK-OV-3 ovarian = tested on: SK-OV-3 ovarian
SN12C renal = tested on: SN12C renal
SNB-19 CNS = tested on: SNB-19 CNS
SNB-75 CNS = tested on: SNB-75 CNS
SR leukemia = tested on: SR leukemia
SW-620 colon = tested on: SW-620 colon
U251 glioblastoma = tested on: U251 glioblastoma
UACC-257 melanoma = tested on: UACC-257 melanoma
UACC-62 melanoma = tested on: UACC-62 melanoma
UO-31 renal = tested on: UO-31 renal
MALME-3M melanoma = tested on: MALME-3M melanoma
MDA-MB-231 breast = tested on: MDA-MB-231 breast
MDA-MB-435 melanoma = tested on: MDA-MB-435 melanoma
MOLT-4 leukemia = tested on: MOLT-4 leukemia
NCI-H322M lung = tested on: NCI-H322M lung
OVCAR-4 ovarian = tested on: OVCAR-4 ovarian
OVCAR-5 ovarian = tested on: OVCAR-5 ovarian
PC-3 prostate = tested on: PC-3 prostate
RXF 393 renal = tested on: RXF 393 renal
T-47D breast = tested on: T-47D breast
TK-10 renal = tested on: TK-10 renal

Nc1ccn(C2OC(CO)C(O)C2O)c(=O)n1 (configuration not stated)
0.0205 µM: TGI (CCRF-CEM leukemia)
1.01 µM: TGI (NCI-H23 lung)
inactive: GI50 (BT-549 breast) 0.602 µM | GI50 (CAKI-1 renal) 0.446 µM | GI50 (DU-145 prostate) 0.501 µM | GI50 (HOP-92 NSCLC) 10.6 µM | GI50 (HT29 colon) 1.48 µM | GI50 (IGROV1 ovarian) 2.39 µM | GI50 (KM12 colon) 6.67 µM | GI50 (MDA-MB-468 breast) 1.14 µM | GI50 (NCI-H226 lung) 1.74 µM | GI50 (NCI/ADR-RES ovarian) 0.446 µM | GI50 (OVCAR-3 ovarian) 6.7 µM | GI50 (RPMI-8226 leukemia) 3.49 µM | GI50 (SF-268 CNS) 1.03 µM | GI50 (SF-295 CNS) 2.14 µM | GI50 (SF-539 CNS) 1.8 µM | GI50 (SK-MEL-2 melanoma) > 21.4 µM | GI50 (SK-OV-3 ovarian) 1.89 µM | GI50 (SN12C renal) 1.24 µM | GI50 (SNB-19 CNS) 0.738 µM | GI50 (SNB-75 CNS) 8.64 µM | GI50 (SW-620 colon) 0.581 µM | GI50 (U251 glioblastoma) 1.06 µM | GI50 (UACC-257 melanoma) 2.23 µM | GI50 (UACC-62 melanoma) 0.732 µM
2.64 µM: TGI (COLO 205 colon)
0.366 µM: TGI (NCI-H460 NSCLC)
active: GI50 ([…]-0 renal) 0.218 µM | GI50 (A498 renal) 0.27 µM | GI50 (A549 NSCLC) 0.0751 µM | GI50 (ACHN renal) 0.196 µM | GI50 (CCRF-CEM leukemia) < 0.0137 µM | GI50 (COLO 205 colon) 0.0588 µM | GI50 (HCC-2998 colon) 0.0847 µM | GI50 (HCT-116 colon) 0.0695 µM | GI50 (HCT-15 colon) 0.328 µM | GI50 (HL-60(TB) leukemia) 0.182 µM | GI50 (HOP-62 NSCLC) 0.0639 µM | GI50 (K-562 leukemia) 0.155 µM | GI50 (LOX IMVI melanoma) 0.286 µM | GI50 (M14 melanoma) 0.148 µM | GI50 (MCF7 breast) 0.0991 µM | GI50 (NCI-H23 lung) 0.106 µM | GI50 (NCI-H460 NSCLC) 0.0343 µM | GI50 (NCI-H522 lung) 0.0858 µM | GI50 (OVCAR-8 ovarian) 0.102 µM | GI50 (SK-MEL-28 melanoma) 0.171 µM | GI50 (SK-MEL-5 melanoma) 0.249 µM | GI50 (SR leukemia) 0.103 µM | GI50 (UO-31 renal) 0.406 µM
0.759 µM: TGI (HL-60(TB) leukemia)
0.79 µM: TGI (SK-MEL-5 melanoma)
> 30.8 µM: TGI (DU-145 prostate)
0.706 µM: TGI (HOP-62 NSCLC)
0.235 µM: TGI (SR leukemia)
> 42.5 µM: TGI (UACC-257 melanoma)
> 27.2 µM: TGI (SNB-19 CNS)
> 95.6 µM: TGI (SF-539 CNS)
1.95 µM: TGI (M14 melanoma)
9.95 µM: TGI (LOX IMVI melanoma)
1.11 µM: TGI (ACHN renal)
12 µM: TGI (SF-295 CNS)

C[C@H](Nc1cc(Cl)nc2c1cnn2[C@@H]1O[C@H](COP(=O)(O)CP(=O)(O)O)[C@@H](O)[C@H]1O)c1ccccc1F
40.9 µM: TGI (RPMI-8226 leukemia)
inactive: GI50 ([…]-0 renal) > 100 µM | GI50 (A498 renal) 62.1 µM | GI50 (A549 NSCLC) 80.5 µM | GI50 (ACHN renal) > 100 µM | GI50 (BT-549 breast) 50.6 µM | GI50 (CAKI-1 renal) > 100 µM | GI50 (CCRF-CEM leukemia) 42.4 µM | GI50 (COLO 205 colon) > 100 µM | GI50 (DU-145 prostate) > 100 µM | GI50 (HCC-2998 colon) 72.9 µM | GI50 (HCT-116 colon) > 100 µM | GI50 (HCT-15 colon) > 100 µM | GI50 (HL-60(TB) leukemia) > 100 µM | GI50 (HOP-62 NSCLC) > 100 µM | GI50 (HOP-92 NSCLC) > 100 µM | GI50 (HT29 colon) > 100 µM | GI50 (IGROV1 ovarian) > 100 µM | GI50 (K-562 leukemia) > 100 µM | GI50 (KM12 colon) > 100 µM | GI50 (LOX IMVI melanoma) > 100 µM | GI50 (M14 melanoma) > 100 µM | GI50 (MALME-3M melanoma) > 100 µM | GI50 (MCF7 breast) > 100 µM | GI50 (MDA-MB-231 breast) > 100 µM | GI50 (MDA-MB-435 melanoma) > 100 µM | GI50 (MDA-MB-468 breast) > 100 µM | GI50 (MOLT-4 leukemia) 58.8 µM | GI50 (NCI-H226 lung) 56.6 µM | GI50 (NCI-H23 lung) 67.3 µM | GI50 (NCI-H322M lung) > 100 µM | GI50 (NCI-H460 NSCLC) > 100 µM | GI50 (NCI-H522 lung) > 100 µM | GI50 (NCI/ADR-RES ovarian) > 100 µM | GI50 (OVCAR-3 ovarian) > 100 µM | GI50 (OVCAR-4 ovarian) 50.6 µM | GI50 (OVCAR-5 ovarian) > 100 µM | GI50 (OVCAR-8 ovarian) > 100 µM | GI50 (PC-3 prostate) > 100 µM | GI50 (RPMI-8226 leukemia) 8.19 µM | GI50 (RXF 393 renal) 28.5 µM | GI50 (SF-268 CNS) > 100 µM | GI50 (SF-295 CNS) > 100 µM | GI50 (SF-539 CNS) 49.9 µM | GI50 (SK-MEL-2 melanoma) 99.6 µM | GI50 (SK-MEL-28 melanoma) > 100 µM | GI50 (SK-MEL-5 melanoma) > 100 µM | GI50 (SK-OV-3 ovarian) 73.8 µM | GI50 (SN12C renal) 70.8 µM | GI50 (SNB-19 CNS) > 100 µM | GI50 (SR leukemia) 47.9 µM | GI50 (SW-620 colon) > 100 µM | GI50 (T-47D breast) 80.7 µM | GI50 (TK-10 renal) > 100 µM | GI50 (U251 glioblastoma) > 100 µM | GI50 (UACC-257 melanoma) > 100 µM | GI50 (UACC-62 melanoma) > 100 µM | GI50 (UO-31 renal) > 100 µM
> 100 µM: TGI (786-0 renal) | TGI (A498 renal) | TGI (A549 NSCLC) | TGI (ACHN renal) | TGI (BT-549 breast) | TGI (CAKI-1 renal) | TGI (CCRF-CEM leukemia) | TGI (COLO 205 colon) | TGI (DU-145 prostate) | TGI (HCC-2998 colon) | TGI (HCT-116 colon) | TGI (HCT-15 colon) | TGI (HL-60(TB) leukemia) | TGI (HOP-62 NSCLC) | TGI (HOP-92 NSCLC) | TGI (HT29 colon) | TGI (IGROV1 ovarian) | TGI (K-562 leukemia) | TGI (KM12 colon) | TGI (LOX IMVI melanoma) | TGI (M14 melanoma) | TGI (MALME-3M melanoma) | TGI (MCF7 breast) | TGI (MDA-MB-231 breast) | TGI (MDA-MB-435 melanoma) | TGI (MDA-MB-468 breast) | TGI (MOLT-4 leukemia) | TGI (NCI-H226 lung) | TGI (NCI-H23 lung) | TGI (NCI-H322M lung) | TGI (NCI-H460 NSCLC) | TGI (NCI-H522 lung) | TGI (NCI/ADR-RES ovarian) | TGI (OVCAR-3 ovarian) | TGI (OVCAR-4 ovarian) | TGI (OVCAR-5 ovarian) | TGI (OVCAR-8 ovarian) | TGI (PC-3 prostate) | TGI (RXF 393 renal) | TGI (SF-268 CNS) | TGI (SF-295 CNS) | TGI (SF-539 CNS) | TGI (SK-MEL-2 melanoma) | TGI (SK-MEL-28 melanoma) | TGI (SK-MEL-5 melanoma) | TGI (SK-OV-3 ovarian) | TGI (SN12C renal) | TGI (SNB-19 CNS) | TGI (SR leukemia) | TGI (SW-620 colon) | TGI (T-47D breast) | TGI (TK-10 renal) | TGI (U251 glioblastoma) | TGI (UACC-257 melanoma) | TGI (UACC-62 melanoma) | TGI (UO-31 renal)
